# Measured values reported in ChEMBL document CHEMBL4270495, “Oleanane-, ursane-, and quinone methide friedelane-type triterpenoid derivatives: Recent advances in cancer treatment” (Eur J Med Chem, 2017).
# pIC50: −log10 of the molar value.
# Columns and labels:
# SGC-7901 = assay: Cytotoxicity in human SGC7901 cells assessed as reduction in cell viability incubated for 48 hrs by MTT assay; format: functional, cell-based; details: SGC-7901, 48 h
# A-375 = assay: Cytotoxicity in human A375 cells assessed as reduction in cell viability incubated for 24 hrs by MTT assay; format: functional, cell-based; details: A-375, 24 h
# [1] = Cytotoxicity in human SPC-A1 cells assessed as reduction in cell viability incubated for 24 hrs by MTT assay; format: functional, cell-based; details: SPCA1, 24 h
# HepG2 [2] = assay: Cytotoxicity in human HepG2 cells assessed as reduction in cell viability incubated for 24 hrs by MTT assay; format: functional, cell-based; details: HepG2, 24 h
# NCI-H446 = assay: Cytotoxicity in human NCI-H446 cells assessed as reduction in cell viability incubated for 24 hrs by MTT assay; format: functional, cell-based; details: NCI-H446, 24 h
# HeLa = assay: Cytotoxicity in human HeLa cells assessed as reduction in cell viability incubated for 48 hrs by MTT assay; format: functional, cell-based
# HepG2 [3] = assay: Cytotoxicity in human HepG2 cells assessed as reduction in cell viability incubated for 48 hrs by MTT assay; format: functional, cell-based; details: HepG2, 48 h
# SMMC-7721 = assay: Cytotoxicity in human SMMC7721 cells assessed as reduction in cell viability incubated for 48 hrs by MTT assay; format: functional, cell-based; details: SMMC-7721, 48 h
# MDA-MB-231 [4] = assay: Cytotoxicity in human MDA-MB-231 cells assessed as reduction in cell viability incubated for 24 hrs by MTT assay; format: functional, cell-based; details: MDA-MB-231, 24 h
# T47D = assay: Cytotoxicity in human T47D cells assessed as reduction in cell viability incubated for 24 hrs by MTT assay; format: functional, cell-based
# HL-60 = assay: Cytotoxicity in human HL60 cells assessed as reduction in cell viability incubated for 24 hrs by MTT assay; format: functional, cell-based; details: HL-60, 24 h
# MCF7 [5] = assay: Cytotoxicity in human MCF7 cells assessed as reduction in cell viability incubated for 24 hrs by MTT assay; format: functional, cell-based; details: MCF7, 24 h
# HL60/ADR = assay: Cytotoxicity in human HL60/ADR cells assessed as reduction in cell viability incubated for 24 hrs by MTT assay; format: functional, cell-based
# MDA-MB-468 = assay: Cytotoxicity in human MDA-MB-468 cells assessed as reduction in cell viability incubated for 24 hrs by MTT assay; format: functional, cell-based; details: MDA-MB-468, 24 h
# MCF-12A = assay: Cytotoxicity in human MCF12A cells assessed as reduction in cell viability incubated for 24 hrs by MTT assay; format: functional, cell-based
# MCF7 [6] = assay: Cytotoxicity in human MCF7 cells assessed as reduction in cell viability incubated for 48 hrs by SRB assay; format: functional, cell-based; details: MCF7, 48 h
# MDA-MB-231 [7] = assay: Cytotoxicity in human MDA-MB-231 cells assessed as reduction in cell viability incubated for 48 hrs by SRB assay; format: functional; details: MDA-MB-231, 48 h
Compound,pIC50 (SGC-7901),pIC50 (A-375),pIC50 [1],pIC50 (NCI-H446),pIC50 (SMMC-7721),pIC50 (MDA-MB-231 [4]),pIC50 (T47D),pIC50 (HL-60),pIC50 (MCF7 [5]),pIC50 (HL60/ADR),pIC50 (MDA-MB-468),pIC50 (MCF-12A),also measured
C[C@@H]1CC[C@]2(C(=O)O)CC[C@]3(C)C(=CC(=O)[C@@H]4[C@@]5(C)CC[C@H](O)[C@](C)(CO)[C@@H]5CC[C@]43C)[C@@H]2[C@]1(C)O,4.78,4.76 to 4.78,4.07,4.94,,,,,,,,,pIC50 (HepG2 [2]): 5.13; pIC50 (HeLa): 4.73; pIC50 (HepG2 [3]): 5.08
CC(=O)OC[C@]1(C)[C@@H]2CC[C@]3(C)[C@H](C(=O)C=C4[C@H]5[C@](C(=O)OCC(=O)N/N=C/c6ccc(C)cc6)(CC[C@@H](C)[C@@]5(C)O)CC[C@]43C)[C@@]2(C)CC[C@@H]1OC(C)=O,,5.19,5.13,4.82,,,,,,,,,
CC1=C(O)C(=O)C=C2C1=CC=C1[C@@]2(C)CC[C@@]2(C)[C@@H]3C[C@](C)(C(=O)NCCO)CC[C@]3(C)CC[C@]12C,6.80,,,,6.52,,,,,,,,
CC1(C)CC[C@@]23CC[C@]4(C)[C@@](OC2=O)([C@@H]3C1)[C@@H](Br)C[C@@H]1[C@@]2(C)CC/C(=N\O)C(C)(C)[C@@H]2CC[C@]14C,,,,,,< 4.30,5.24,4.99,5.18,4.92,5.24,4.69,
CC(=O)OC[C@]1(C)[C@@H]2CC[C@]3(C)[C@H](C(=O)C=C4[C@H]5[C@](C(=O)OCC(=O)N/N=C/c6ccccc6)(CC[C@@H](C)[C@@]5(C)O)CC[C@]43C)[C@@]2(C)CC[C@@H]1OC(C)=O,,5.51,5.07,4.93,,,,,,,,,
CC1=C(O)C(=O)C=C2C1=CC=C1[C@@]2(C)CC[C@@]2(C)[C@@H]3C[C@](C)(C(=O)NCC(C)O)CC[C@]3(C)CC[C@]12C (stereo not given in full),7.00,,,,6.21,,,,,,,,
CC1(C)CC[C@]2(C(=O)O)CC[C@]3(C)C(=CC[C@@H]4[C@@]5(C)CC[C@H](O)C(C)(C)[C@@H]5CC[C@]43C)[C@@H]2C1 [OLEANOLIC_ACID],,,,,,< 4.30,4.44,4.83,4.90,4.54,4.42,< 4.30,GI50 (MCF7 [6]): 10.3 µM; GI50 (MDA-MB-231 [7]): 17.6 µM
COC(=O)[C@]12CCC(C)(C)C[C@H]1C1=CC(=O)[C@@H]3[C@@]4(C)CC/C(=N\O)C(C)(C)[C@@H]4CC[C@@]3(C)[C@]1(C)CC2,,,,,,4.68,5.00,5.43,5.49,5.45,5.37,4.59,
CC(=O)OC[C@]1(C)[C@@H]2CC[C@]3(C)[C@H](C(=O)C=C4[C@H]5[C@](C(=O)OCC(=O)N/N=C/c6ccc(Cl)cc6)(CC[C@@H](C)[C@@]5(C)O)CC[C@]43C)[C@@]2(C)CC[C@@H]1OC(C)=O,,< 4.00,< 4.00,< 4.00,,,,,,,,,
COC1=C(Br)C(=O)c2c([nH]c3c2C[C@]2(C)[C@H]4CC=C5[C@@H]6[C@@H](C)[C@H](C)CC[C@]6(C(=O)O)CC[C@@]5(C)[C@]4(C)CC[C@H]2C3(C)C)C1=O,,,,,5.92,,,,,,,,pIC50 (HepG2 [3]): 5.80
